Results from ChEMBL document CHEMBL3421579, “Absolute configuration of labdane diterpenoids from Physalis nicandroides” (J Nat Prod, 2015).

Tests used:
[1] = system: Mus musculus; assay: Anti-inflammatory activity in CD1 mouse model of TPA-induced ear edema assessed as inhibition of ear edema at 0.1 to 1 umol/ear applied to right ear 10 mins after TPA-stimulation and measured 4 hrs post compound dose relative to indomethacin; type: functional
[2] = system: Mus musculus; assay: Anti-inflammatory activity in CD1 mouse model of TPA-induced ear edema assessed as inhibition of ear edema at 1 umol/ear applied to right ear 10 mins after TPA-stimulation and measured 4 hrs post compound dose; type: functional
[3] = system: Mus musculus; assay: Anti-inflammatory activity in CD1 mouse model of TPA-induced ear edema assessed as inhibition of ear edema at 0.1 to 1 umol/ear applied to right ear 10 mins after TPA-stimulation and measured 4 hrs post compound dose; type: functional, organism-based

| Compound | Ratio IC50 [1] | inhibition (INH) [2] [%] | IC50 [3] [µmol] |
| --- | --- | --- | --- |
| C/C(=C\CO)CC[C@@H]1[C@@]2(C)CCCC(C)(C)[C@@H]2CC[C@@]1(C)O | 2 | 64.32 | 0.67 |
| C=C1CC[C@H]2C(C)(C)CCC[C@]2(C)[C@H]1CC/C(=C/CO)CO |  | 41.35 |  |
| COc1ccc2c(c1)c(CC(=O)O)c(C)n2C(=O)c1ccc(Cl)cc1 [INDOMETHACIN] |  |  | 0.297 |
